Counter-ions that a name gives are not always drawn.
Target: T1, human AspH (His6-AspH315–758) (Homo sapiens, UniProt Q12797)
T1 construct: N-Terminally His6-tagged human AspH315–758 (His6-AspH315–758) was produced in Escherichia coli BL21 (DE3) cells; made in house; host or cells: Escherichia coli BL21 (DE3), pET-28a(+) vector
T1 sequence (Q12797 315-758): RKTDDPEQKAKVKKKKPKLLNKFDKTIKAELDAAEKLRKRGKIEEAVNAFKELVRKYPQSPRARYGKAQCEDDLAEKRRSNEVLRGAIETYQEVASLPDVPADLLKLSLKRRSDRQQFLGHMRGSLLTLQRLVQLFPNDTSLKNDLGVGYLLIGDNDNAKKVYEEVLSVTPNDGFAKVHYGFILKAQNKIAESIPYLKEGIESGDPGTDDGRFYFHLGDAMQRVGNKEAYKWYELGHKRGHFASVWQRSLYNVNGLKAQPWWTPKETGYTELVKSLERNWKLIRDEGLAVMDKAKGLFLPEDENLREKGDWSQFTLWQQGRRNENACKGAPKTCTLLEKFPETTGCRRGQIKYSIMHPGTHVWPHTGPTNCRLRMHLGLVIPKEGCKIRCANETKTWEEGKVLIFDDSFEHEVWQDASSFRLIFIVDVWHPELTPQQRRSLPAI
Experiment: SPE-MS AspH inhibition assay (hFX-CP101-119 substrate hydroxylation)
Format: biochemical
Conditions: AspH-inhibitor screening; for Plate 1 (% inhibition): 384-well Plate 1; for Plate 1 (% conversion): 384-well Plate 1, substrate conversion; for Plate 1-duplicate (% conversion): substrate conversion

Row | Structure (SMILES) | Plate 1 (% inhibition) [%] | Plate 1 (% conversion) [%] | Plate 1-duplicate (% inhibition) [%] | Plate 1-duplicate (% conversion) [%]
1 | CC(=O)Nc1cccc(-n2c(=O)n(C3CC3)c(=O)c3c(Nc4ccc(I)cc4F)n(C)c(=O)c(C)c32)c1 [GSK1120212_Trametinib] | -0.37 | 49.92 | -2.41 | 53.24
2 | COc1ncc(-c2ccc3nccc(-c4ccnnc4)c3c2)cc1NS(=O)(=O)c1ccc(F)cc1F [GSK2126458] | 8.17 | 45.98 | 17.15 | 43.54
3 | Cc1c(Cn2c(C)nc3c(C(=O)O)cc(N4CCOCC4)cc32)cccc1C(F)(F)F [GSK2636771] | -0.51 | 49.98 | 13.40 | 45.39
4 | CCn1c(-c2nonc2N)nc2cnc(Oc3cccc(NC(=O)c4ccc(OCCN5CCOCC5)cc4)c3)cc21 [GSK 269962] | -27.40 | 62.40 | -34.23 | 69.02
5 | O=C(O)c1ccc(-c2c[nH]c3ncc(-c4ccccc4)cc23)cc1C1CCCC1 [GSK 650394] | 57.76 | 23.08 | 56.10 | 24.22
6 | C[C@@H]1C=C2C(=O)O[C@@H]3CC[C@H](C1)[C@]23O [Galiellalactone] | 15.61 | 42.54 | 8.63 | 47.76
7 | COc1cc2ncnc(Nc3ccc(F)c(Cl)c3)c2cc1OCCCN1CCOCC1 [Gefitinib] | -37.34 | 66.99 | -37.51 | 70.65
8 | Nc1ccn([C@@H]2O[C@H](CO)[C@@H](O)C2(F)F)c(=O)n1 [Gemcitabine hydrochloride] | 1.09 | 49.25 | 10.34 | 46.91
9 | CC(C)C[C@H](NC(=O)[C@@H](COC(C)(C)C)NC(=O)[C@H](Cc1ccc(O)cc1)NC(=O)[C@H](CO)NC(=O)[C@H](Cc1c[nH]c2ccccc12)NC(=O)[C@H](Cc1cnc[nH]1)NC(=O)[C@@H]1CCC(=O)N1)C(=O)N[C@@H](CCCNC(=N)N)C(=O)N1CCC[C@H]1C(=O)NNC(N)=O [Goserelin acetate] | -21.27 | 59.57 | -15.30 | 59.63
10 | O=S(=O)(c1cccc2cnccc12)N1CCCNCC1 [HA-1077 (Fasudil)] | 1.01 | 49.28 | 12.84 | 45.67
11 | COC(=O)C[C@](O)(CCCC(C)(C)O)C(=O)O[C@@H]1C(OC)=C[C@]23CCCN2CCc2cc4c(cc2[C@H]13)OCO4 [Homoharringtonine] | 6.00 | 46.98 | 5.43 | 49.35
12 | NC(=O)NO [Hydroxyurea] | 16.85 | 41.97 | 8.68 | 47.74
13 | COc1cc2c(cc1-c1c(C)noc1C)ncc1[nH]c(=O)n([C@H](C)c3ccccn3)c12 [I-BET151 (GSK1210151A)] | 3.78 | 48.01 | 1.98 | 51.06
14 | N#CC[C@H](C1CCCC1)n1cc(-c2ncnc3[nH]ccc23)cn1 [INCB018424 (free base, Ruxolitinib)] | 4.31 | 47.76 | 3.98 | 50.07

Reference: publication PMC7588595, “Small-molecule active pharmaceutical ingredients of approved cancer therapeutics inhibit human aspartate/asparagine-β-hydroxylase” (Bioorganic & Medicinal Chemistry, 2020)
